The record followed here is BindingDB's records for doi:10.1016/0960-894X(95)00091-7 (1995).

Test [1] in a line: Binding affinity towards cloned human 5-hydroxytryptamine 1D receptor beta was determined.
The nature of test [2]: Compound was tested for its ability inhibit forskolin-stimulated activity of adenylate cyclase coupled to human 5-hydroxytryptamine 1D receptor beta in CHO-K1 cells; value ranges from 0.24-0.55.
The nature of test [3]: Compound was tested for its ability inhibit forskolin-stimulated activity of adenylate cyclase coupled to human 5-HT 1D-beta receptor in CHO-K1 cells.
Test [4] can be described thus: Compound was tested for its affinity towards Alpha-2 adrenergic receptor.
A short description of test [5]: Compound was tested for its ability inhibit forskolin-stimulated activity of adenylate cyclase coupled to human 5-HT 1D-beta receptor in CHO-K1 cells. The source holds these as a separate data set.
Test [6] is described as follows: Compound was tested for its ability inhibit forskolin-stimulated activity of adenylate cyclase coupled to human 5-hydroxytryptamine 1D receptor beta in CHO-K1 cells; value ranges from 0.24-0.55. The source holds these as a separate data set.
The nature of test [7]: Compound was tested for its ability inhibit forskolin-stimulated activity of adenylate cyclase coupled to human 5-hydroxytryptamine 1D receptor beta in CHO-K1 cells; value ranges from 2.8-6.5.

One may read the Ki as the dissociation constant of the complex between target and ligand, obtained from inhibition or displacement. Lower therefore signals tighter binding. For orientation: EC50 means the concentration needed to bring the measured effect to its halfway point. Read a low EC50 as a more potent agent. `COc1cccc(N2CCN(C(=O)COc3ccc4[nH]cc(CCN)c4c3)CC2)c1` [2-[3-(2-Amino-ethyl)-1H-indol-5-yloxy]-1-[4-(3-methoxy-phenyl)-piperazin-1-yl]-ethanone]: the Ki in test [1] is 0.4 nM. This molecule also gave an EC50 in test [2] of 0.24 nM.

For the molecule `NCCc1c[nH]c2ccc(OCC(=O)N3CCN(c4ccccc4)CC3)cc12` [2-[3-(2-Amino-ethyl)-1H-indol-5-yloxy]-1-(4-phenyl-piperazin-1-yl)-ethanone], in test [1], the Ki came to 0.6 nM. The molecule further showed an EC50 in test [3] of 0.45 nM.

By IC50 is commonly meant the concentration at which inhibition is half-maximal. Read a high IC50 as lower potency. In test [4], `Cc1ccccc1N1CCN(C(=O)COc2ccc3[nH]cc(CCN)c3c2)CC1` had an IC50 above 10000 nM.

As to `CCCCCCCCCOc1ccc2[nH]cc(CCN)c2c1` [2-(5-Nonyloxy-1H-indol-3-yl)-ethylamine], in test [5], the EC50 was 68 nM.

Take `NCCc1c[nH]c2ccc(OCC(=O)N3CCN(c4cccc5ccccc45)CC3)cc12` [2-[3-(2-Amino-ethyl)-1H-indol-5-yloxy]-1-(4-naphthalen-1-yl-piperazin-1-yl)-ethanone]: in test [4], the IC50 is above 1000 nM. Also, the Ki in test [6] came to 0.52 nM. Besides, in test [7], it took 2.8 nM to reach a half-maximal effect (EC50).
